{
  "source": "PubChem BioAssay AID1918936",
  "about": "(Molecular Pharmacology Branch, DTP, NCI, 2023)",
  "test_system": "349418-098-R-PDC complex spheroid viability",
  "assay": "Anticancer human tumor 349418-098-R-PDC patient-derived lung adenocarcinoma cell line growth inhibition",
  "details": "for viability, T/C: stronger effect = lower value",
  "in_short": "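Drug combinations with the LSD1 inhibitor iadademstat tested on tumor cells co-cultured as spheroids with endothelial cells and mesenchymal stem cells. Concentrations descended in half-log increments from clinical Cmax or 10 microM.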",
  "key": {"[1]": {"details": "curve of first compound, second compound 0.1 µM"}, "[2]": {"details": "curve of first compound, second compound 0.316 µM"}, "[3]": {"details": "curve of first compound, second compound 1 µM"}, "[4]": {"details": "curve of first compound, second compound 3.16 µM"}, "[5]": {"details": "curve of first compound, second compound 10 µM"}},
  "note": "Values joined by “and” are separate entries in the source; they are usually repeats but may differ in a detail not shown here. Equal values may be shown once.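 Further: spheroids exposed to agents for seven days before readout.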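 Wherever viability, T/C is given: 100% = DMSO vehicle control wells.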",
  "data": [
    {"smiles": "CC(C)CC(NC(=O)CNC(=O)c1cc(Cl)ccc1Cl)B1OC(=O)CC(CC(=O)O)(C(=O)O)O1", "note": "(centres undefined)", "values": [
      {"measurement": "viability, T/C", "setting": "compound 0.000316 µM", "value": "88.8% and 103%"},
      {"measurement": "viability, T/C", "setting": "compound 0.001 µM", "value": "24.5% and 38.9%"},
      {"measurement": "viability, T/C", "setting": "compound 0.00316 µM", "value": "4.47% and 4.31%"},
      {"measurement": "viability, T/C", "setting": "compound 0.01 µM", "value": "2.14% and 2%"},
      {"measurement": "viability, T/C", "setting": "compound 0.0316 µM", "value": "1.69% and 1.05%"},
      {"measurement": "viability, T/C", "setting": "compound 0.1 µM", "value": "1.35% and 1.12%"},
      {"measurement": "IC50", "setting": "curve of compound", "value": "0.633 nM and 0.818 nM"}
    ]},
    {"smiles": "CC(C)CC(NC(=O)C(Cc1ccccc1)NC(=O)c1cnccn1)B(O)O", "note": "(centres undefined) + NC1CCC(NC2CC2c2ccccc2)CC1", "values": [
      {"measurement": "IC50", "setting": "[1]", "value": "< 0.316", "unit": "nM"},
      {"measurement": "IC50", "setting": "[2]", "value": "< 0.316", "unit": "nM"},
      {"measurement": "IC50", "setting": "[3]", "value": "< 0.316", "unit": "nM"},
      {"measurement": "IC50", "setting": "[4]", "value": "< 0.316", "unit": "nM"},
      {"measurement": "IC50", "setting": "[5]", "value": "< 0.316", "unit": "nM"},
      {"measurement": "viability, T/C", "setting": "second compound 0.1 µM, first compound 0.000316 µM", "value": 9.12, "unit": "%"},
      {"measurement": "viability, T/C", "setting": "second compound 0.1 µM, first compound 0.001 µM", "value": 2.17, "unit": "%"},
      {"measurement": "viability, T/C", "setting": "second compound 0.1 µM, first compound 0.00316 µM", "value": 1.09, "unit": "%"},
      {"measurement": "viability, T/C", "setting": "second compound 0.1 µM, first compound 0.01 µM", "value": 0.81, "unit": "%"},
      {"measurement": "viability, T/C", "setting": "second compound 0.1 µM, first compound 0.0316 µM", "value": 0.69, "unit": "%"},
      {"measurement": "viability, T/C", "setting": "second compound 0.1 µM, first compound 0.1 µM", "value": 0.6, "unit": "%"},
      {"measurement": "viability, T/C", "setting": "second compound 0.316 µM, first compound 0.000316 µM", "value": 7.64, "unit": "%"},
      {"measurement": "viability, T/C", "setting": "second compound 0.316 µM, first compound 0.001 µM", "value": 2.21, "unit": "%"},
      {"measurement": "viability, T/C", "setting": "second compound 0.316 µM, first compound 0.00316 µM", "value": 1.14, "unit": "%"},
      {"measurement": "viability, T/C", "setting": "second compound 0.316 µM, first compound 0.01 µM", "value": 0.67, "unit": "%"},
      {"measurement": "viability, T/C", "setting": "second compound 0.316 µM, first compound 0.0316 µM", "value": 0.64, "unit": "%"},
      {"measurement": "viability, T/C", "setting": "second compound 0.316 µM, first compound 0.1 µM", "value": 0.58, "unit": "%"},
      {"measurement": "viability, T/C", "setting": "second compound 1 µM, first compound 0.000316 µM", "value": 9.06, "unit": "%"},
      {"measurement": "viability, T/C", "setting": "second compound 1 µM, first compound 0.001 µM", "value": 1.64, "unit": "%"},
      {"measurement": "viability, T/C", "setting": "second compound 1 µM, first compound 0.00316 µM", "value": 0.88, "unit": "%"},
      {"measurement": "viability, T/C", "setting": "second compound 1 µM, first compound 0.01 µM", "value": 0.64, "unit": "%"},
      {"measurement": "viability, T/C", "setting": "second compound 1 µM, first compound 0.0316 µM", "value": 0.7, "unit": "%"},
      {"measurement": "viability, T/C", "setting": "second compound 1 µM, first compound 0.1 µM", "value": 0.62, "unit": "%"},
      {"measurement": "viability, T/C", "setting": "second compound 3.16 µM, first compound 0.000316 µM", "value": 8.64, "unit": "%"},
      {"measurement": "viability, T/C", "setting": "second compound 3.16 µM, first compound 0.001 µM", "value": 1.66, "unit": "%"},
      {"measurement": "viability, T/C", "setting": "second compound 3.16 µM, first compound 0.00316 µM", "value": 0.69, "unit": "%"},
      {"measurement": "viability, T/C", "setting": "second compound 3.16 µM, first compound 0.01 µM", "value": 0.63, "unit": "%"},
      {"measurement": "viability, T/C", "setting": "second compound 3.16 µM, first compound 0.0316 µM", "value": 0.46, "unit": "%"},
      {"measurement": "viability, T/C", "setting": "second compound 3.16 µM, first compound 0.1 µM", "value": 0.51, "unit": "%"},
      {"measurement": "viability, T/C", "setting": "second compound 10 µM, first compound 0.000316 µM", "value": 6.88, "unit": "%"},
      {"measurement": "viability, T/C", "setting": "second compound 10 µM, first compound 0.001 µM", "value": 1.23, "unit": "%"},
      {"measurement": "viability, T/C", "setting": "second compound 10 µM, first compound 0.00316 µM", "value": 0.77, "unit": "%"},
      {"measurement": "viability, T/C", "setting": "second compound 10 µM, first compound 0.01 µM", "value": 0.45, "unit": "%"},
      {"measurement": "viability, T/C", "setting": "second compound 10 µM, first compound 0.0316 µM", "value": 0.75, "unit": "%"},
      {"measurement": "viability, T/C", "setting": "second compound 10 µM, first compound 0.1 µM", "value": 0.41, "unit": "%"}
    ]},
    {"smiles": "O=C(C=Cn1cnc(-c2cc(C(F)(F)F)cc(C(F)(F)F)c2)n1)NNc1cnccn1", "values": [
      {"measurement": "viability, T/C", "setting": "compound 0.00316 µM", "value": "19.9% and 22.1%"},
      {"measurement": "viability, T/C", "setting": "compound 0.01 µM", "value": "8.55% and 22.4%"},
      {"measurement": "viability, T/C", "setting": "compound 0.0316 µM", "value": "6.32% and 7.96%"},
      {"measurement": "viability, T/C", "setting": "compound 0.1 µM", "value": "3.87% and 4.72%"},
      {"measurement": "viability, T/C", "setting": "compound 0.316 µM", "value": "2.92% and 3.05%"},
      {"measurement": "viability, T/C", "setting": "compound 1 µM", "value": "2.37% and 2.41%"},
      {"measurement": "IC50", "setting": "curve of compound", "value": "< 3.16", "unit": "nM"}
    ]},
    {"smiles": "CCN(c1cc(-c2ccc(CN3CCOCC3)cc2)cc(C(=O)NCc2c(C)cc(C)[nH]c2=O)c1C)C1CCOCC1", "note": "+ NC1CC1c1ccc(-c2cccc(O)c2)cc1", "values": [
      {"measurement": "IC50", "setting": "[1]", "value": 603, "unit": "nM"},
      {"measurement": "IC50", "setting": "[2]", "value": 650, "unit": "nM"},
      {"measurement": "IC50", "setting": "[3]", "value": 770, "unit": "nM"},
      {"measurement": "IC50", "setting": "[4]", "value": 758, "unit": "nM"},
      {"measurement": "IC50", "setting": "[5]", "value": 499, "unit": "nM"},
      {"measurement": "viability, T/C", "setting": "second compound 0.1 µM, first compound 0.00949 µM", "value": 116, "unit": "%"},
      {"measurement": "viability, T/C", "setting": "second compound 0.1 µM, first compound 0.03 µM", "value": 107, "unit": "%"},
      {"measurement": "viability, T/C", "setting": "second compound 0.1 µM, first compound 0.0949 µM", "value": 109, "unit": "%"},
      {"measurement": "viability, T/C", "setting": "second compound 0.1 µM, first compound 0.3 µM", "value": 74, "unit": "%"},
      {"measurement": "viability, T/C", "setting": "second compound 0.1 µM, first compound 0.949 µM", "value": 34.4, "unit": "%"},
      {"measurement": "viability, T/C", "setting": "second compound 0.1 µM, first compound 3 µM", "value": 11.4, "unit": "%"},
      {"measurement": "viability, T/C", "setting": "second compound 0.316 µM, first compound 0.00949 µM", "value": 120, "unit": "%"},
      {"measurement": "viability, T/C", "setting": "second compound 0.316 µM, first compound 0.03 µM", "value": 121, "unit": "%"},
      {"measurement": "viability, T/C", "setting": "second compound 0.316 µM, first compound 0.0949 µM", "value": 113, "unit": "%"},
      {"measurement": "viability, T/C", "setting": "second compound 0.316 µM, first compound 0.3 µM", "value": 77, "unit": "%"},
      {"measurement": "viability, T/C", "setting": "second compound 0.316 µM, first compound 0.949 µM", "value": 37.5, "unit": "%"},
      {"measurement": "viability, T/C", "setting": "second compound 0.316 µM, first compound 3 µM", "value": 11.9, "unit": "%"},
      {"measurement": "viability, T/C", "setting": "second compound 1 µM, first compound 0.00949 µM", "value": 123, "unit": "%"},
      {"measurement": "viability, T/C", "setting": "second compound 1 µM, first compound 0.03 µM", "value": 124, "unit": "%"},
      {"measurement": "viability, T/C", "setting": "second compound 1 µM, first compound 0.0949 µM", "value": 120, "unit": "%"},
      {"measurement": "viability, T/C", "setting": "second compound 1 µM, first compound 0.3 µM", "value": 89.2, "unit": "%"},
      {"measurement": "viability, T/C", "setting": "second compound 1 µM, first compound 0.949 µM", "value": 42, "unit": "%"},
      {"measurement": "viability, T/C", "setting": "second compound 1 µM, first compound 3 µM", "value": 14, "unit": "%"},
      {"measurement": "viability, T/C", "setting": "second compound 3.16 µM, first compound 0.00949 µM", "value": 126, "unit": "%"},
      {"measurement": "viability, T/C", "setting": "second compound 3.16 µM, first compound 0.03 µM", "value": 121, "unit": "%"},
      {"measurement": "viability, T/C", "setting": "second compound 3.16 µM, first compound 0.0949 µM", "value": 122, "unit": "%"},
      {"measurement": "viability, T/C", "setting": "second compound 3.16 µM, first compound 0.3 µM", "value": 89.1, "unit": "%"},
      {"measurement": "viability, T/C", "setting": "second compound 3.16 µM, first compound 0.949 µM", "value": 41.1, "unit": "%"},
      {"measurement": "viability, T/C", "setting": "second compound 3.16 µM, first compound 3 µM", "value": 14.3, "unit": "%"},
      {"measurement": "viability, T/C", "setting": "second compound 10 µM, first compound 0.00949 µM", "value": 107, "unit": "%"},
      {"measurement": "viability, T/C", "setting": "second compound 10 µM, first compound 0.03 µM", "value": 102, "unit": "%"},
      {"measurement": "viability, T/C", "setting": "second compound 10 µM, first compound 0.0949 µM", "value": 107, "unit": "%"},
      {"measurement": "viability, T/C", "setting": "second compound 10 µM, first compound 0.3 µM", "value": 70.8, "unit": "%"},
      {"measurement": "viability, T/C", "setting": "second compound 10 µM, first compound 0.949 µM", "value": 23.8, "unit": "%"},
      {"measurement": "viability, T/C", "setting": "second compound 10 µM, first compound 3 µM", "value": 11.2, "unit": "%"}
    ]}
  ]
}
